Assay results taken from the RepoRT retention time repository (doi:10.1016/j.jchromb.2020.122105).

Columns and labels:
Details in all cases: stereoisomer not certain
[1] = RP, Waters ACQUITY UPLC BEH C18, 100 × 2.1 mm, 1.7 µm, 0.1 mL/min, estimated dead time 2.2 min; A: water + 0.045% formic acid + 0.11% ammonium hydroxide, pH 7; B: methanol; gradient (min/%B) 0/5 5/5 25/95 25.1/100 35/100 35.1/5 45/5
[2] = HILIC, Merck SeQuant ZIC-HILIC, 150 × 2.1 mm, 5 µm, 0.75 mL/min, estimated dead time 0.44 min; A: water + 10 mM ammonium formate, pH 6; B: 5% water + 95% acetonitrile + 10 mM ammonium formate, pH 6; gradient (min/%B) 0/95 5/95 20/57 25/57 30/95 40/95
[3] = HILIC, Waters XBridge BEH Amide, 100 × 2.1 mm, 2.5 µm, 0.5 mL/min, estimated dead time 0.44 min; A: water + 0.1% acetic acid + 10 mM ammonium acetate, pH 4; B: 5% water + 95% acetonitrile + 0.1% acetic acid + 10 mM ammonium acetate, pH 4; gradient (min/%B) 0/95 5/95 20/57 25/57 30/95 40/95
[4] = RP, Waters CORTECS T3, 100 × 2.1 mm, 2.7 µm, 0.2 mL/min, estimated dead time 1.1 min; A: water + 0.045% formic acid + 0.11% ammonium hydroxide, pH 7; B: methanol; gradient (min/%B) 0/5 5/5 25/95 25.1/100 35/100 35.1/5 45/5
[5] = HILIC, Merck SeQuant ZIC-HILIC, 150 × 2.1 mm, 5 µm, 0.75 mL/min, estimated dead time 0.44 min; A: water + 0.1% acetic acid + 10 mM ammonium acetate, pH 4; B: 5% water + 95% acetonitrile + 0.1% acetic acid + 10 mM ammonium acetate, pH 4; gradient (min/%B) 0/95 5/95 20/57 25/57 30/95 40/95
[6] = RP, Waters ACQUITY UPLC BEH C18, 100 × 2.1 mm, 1.7 µm, 0.1 mL/min, estimated dead time 2.2 min; A: water + 0.1% formic acid, pH 3; B: methanol + 0.1% formic acid, pH 3; gradient (min/%B) 0/5 5/5 25/95 25.1/100 35/100 35.1/5 45/5
[7] = RP, Waters CORTECS T3, 100 × 2.1 mm, 2.7 µm, 0.2 mL/min, estimated dead time 1.1 min; A: water + 0.1% formic acid, pH 3; B: methanol + 0.1% formic acid, pH 3; gradient (min/%B) 0/5 5/5 25/95 25.1/100 35/100 35.1/5 45/5
[8] = RP, Thermo Scientific Hypercarb, 150 × 2.1 mm, 5 µm, 0.1 mL/min, estimated dead time 3.3 min; A: water + 0.1% formic acid, pH 3; B: methanol + 0.1% formic acid, pH 3; gradient (min/%B) 0/5 5/5 20/100 35/100 35.1/5 45/5
[9] = RP, Waters CORTECS T3, 100 × 2.1 mm, 2.7 µm, 0.3 mL/min, estimated dead time 0.73 min; A: water + 0.1% formic acid, pH 3; B: methanol + 0.1% formic acid, pH 3; gradient (min/%B) 0/5 5/5 25/100 30/100 30.1/5 35/5
[10] = RP, Waters CORTECS T3, 100 × 2.1 mm, 2.7 µm, 0.1 mL/min, estimated dead time 2.2 min; A: water + 0.1% formic acid, pH 3; B: methanol + 0.1% formic acid, pH 3; gradient (min/%B) 0/5 5/5 25/95 25.1/100 35/100 35.1/5 45/5
[11] = RP, Waters ACQUITY UPLC BEH C18, 100 × 2.1 mm, 1.7 µm, 0.2 mL/min, estimated dead time 1.1 min; A: water + 0.025% formic acid + 20 mM ammonium acetate + 0.055% ammonium hydroxide, pH 7; B: methanol; gradient (min/%B) 0/5 5/5 25/100 30/100 30.1/5 35/5
[12] = RP, Waters ACQUITY UPLC BEH C18, 100 × 2.1 mm, 1.7 µm, 0.1 mL/min, estimated dead time 2.2 min; A: water + 0.1% formic acid, pH 3; B: methanol + 0.1% formic acid, pH 3; gradient (min/%B) 0/5 5/5 25/100 30/100 30.1/5 35/5
[13] = RP, Waters ACQUITY UPLC BEH C18, 100 × 2.1 mm, 1.7 µm, 0.2 mL/min, estimated dead time 1.1 min; A: water + 0.025% formic acid + 20 mM ammonium acetate + 0.055% ammonium hydroxide, pH 7; B: methanol; gradient (min/%B) 0/5 5/5 25/100 30/100 30.1/5 35/5; remark: listed apart in the source
[14] = RP, Waters CORTECS T3, 100 × 2.1 mm, 2.7 µm, 0.1 mL/min, estimated dead time 2.2 min; A: water + 0.1% formic acid, pH 3; B: methanol + 0.1% formic acid, pH 3; gradient (min/%B) 0/0 1/0 6/5 30/100 35/100 35.1/0 40/0
[15] = RP, Waters CORTECS T3, 100 × 2.1 mm, 2.7 µm, 0.25 mL/min, estimated dead time 0.88 min; A: water + 0.1% formic acid, pH 3; B: methanol + 0.1% formic acid, pH 3; gradient (min/%B) 0/0 1/0 6/5 30/100 35/100 35.1/0 40/0
[16] = RP, Waters CORTECS T3, 100 × 2.1 mm, 2.7 µm, 0.15 mL/min, estimated dead time 1.5 min; A: water + 0.1% formic acid, pH 3; B: methanol + 0.1% formic acid, pH 3; gradient (min/%B) 0/0 1/0 6/5 30/100 35/100 35.1/0 40/0
[17] = RP, Waters CORTECS T3, 100 × 2.1 mm, 2.7 µm, 0.3 mL/min, estimated dead time 0.73 min; A: water + 0.1% formic acid, pH 3; B: methanol + 0.1% formic acid, pH 3; gradient (min/%B) 0/0 1/0 6/5 30/100 35/100 35.1/0 40/0
[18] = RP, Waters CORTECS T3, 100 × 2.1 mm, 2.7 µm, 0.3 mL/min, estimated dead time 0.73 min; A: water + 0.1% formic acid, pH 3; B: methanol + 0.1% formic acid, pH 3; gradient (min/%B) 0/0 5/0 25/100 30/100 30.1/0 35/0
[19] = RP, Waters CORTECS T3, 100 × 2.1 mm, 2.7 µm, 0.3 mL/min, estimated dead time 0.73 min; A: water + 0.1% formic acid, pH 3; B: methanol + 0.1% formic acid, pH 3; gradient (min/%B) 0/5 5/5 25/95 25.1/100 35/100 35.1/5 45/5
[20] = RP, Waters CORTECS T3, 100 × 2.1 mm, 2.7 µm, 0.2 mL/min, estimated dead time 1.1 min; A: water + 0.1% formic acid, pH 3; B: methanol + 0.1% formic acid, pH 3; gradient (min/%B) 0/0 1/0 6/5 30/100 35/100 35.1/0 40/0
[21] = RP, Waters CORTECS T3, 100 × 2.1 mm, 2.7 µm, 0.3 mL/min, estimated dead time 0.73 min; A: water + 0.1% formic acid, pH 3; B: methanol + 0.1% formic acid, pH 3; gradient (min/%B) 0/0 5/0 25/100 30/100 30.1/0 35/0; remark: listed apart in the source
[22] = RP, Waters ACQUITY UPLC BEH C18, 100 × 2.1 mm, 1.7 µm, 0.2 mL/min, estimated dead time 1.1 min; A: water + 0.1% formic acid, pH 3; B: methanol + 0.1% formic acid, pH 3; gradient (min/%B) 0/5 5/5 25/100 30/100 30.1/5 35/5
[23] = RP, Waters CORTECS T3, 100 × 2.1 mm, 2.7 µm, 0.25 mL/min, estimated dead time 0.88 min; A: water + 0.1% formic acid, pH 3; B: methanol + 0.1% formic acid, pH 3; gradient (min/%B) 0/5 5/5 25/95 25.1/100 35/100 35.1/5 45/5
[24] = RP, Waters CORTECS T3, 100 × 2.1 mm, 2.7 µm, 0.2 mL/min, estimated dead time 1.1 min; A: water + 0.1% formic acid, pH 3; B: methanol + 0.1% formic acid, pH 3; gradient (min/%B) 0/0 1/0 6/5 30/100 35/100 35.1/0 40/0; remark: listed apart in the source
[25] = RP, Waters CORTECS T3, 100 × 2.1 mm, 2.7 µm, 0.3 mL/min, estimated dead time 0.73 min; A: water + 0.1% formic acid, pH 3; B: methanol + 0.1% formic acid, pH 3; gradient (min/%B) 0/0 1/0 6/5 30/100 35/100 35.1/0 40/0; remark: listed apart in the source

Row | SMILES | LC retention time [2] | LC retention time [3] | LC retention time [5] | LC retention time [6] | LC retention time [7] | other results
1 | CCCCCCCCCCCCCCCC(=O)OCC(COP(=O)(O)OCCN)OC(=O)CCCCCCCCCCCCCCC (racemic) [1,2-DIPALMITOYL-RAC-GLYCERO-3-PHOSPHOETHANOLAMINE] | 7.77 min | 6.05 min | – | – | – | LC retention time [1]: 36.9 min; LC retention time [4]: 28.7 min
2 | C=CC1=C(C)C(=Cc2[nH]c(Cc3[nH]c(C=C4NC(=O)C(C)=C4C=C)c(C)c3CCC(=O)O)c(CCC(=O)O)c2C)NC1=O [BILIRUBIN] | 1.06 min | – | 1.32 min | – | – | LC retention time [1]: 26.9 min; LC retention time [4]: 24.4 min
3 | OCC1OC(OCC2OC(OC3(CO)OC(CO)C(O)C3O)C(O)C(O)C2O)C(O)C(O)C1O [D-(+)-RAFFINOSE] | – | – | – | 2.67 min | 2.67 min | –
4 | O=C([O-])[C@H](O)[C@@H](O)[C@H](O)[C@H](O)CO [D-GLUCONATE] | 13 min | 17 min | 12.9 min | – | 2.58 min | –
5 | NC(C(=O)O)C(O)C(O)C(O)CO (stereo not given) [GLUCOSAMINATE] | 14.3 min | 14.7 min | 14.2 min | – | 2.45 min | LC retention time [8]: 4.77 min
6 | O=c1[nH]cnc2nc[nH]c12 [HYPOXANTHINE] | 3.94 min | 3.97 min | – | – | – | LC retention time [9]: 1.33 min; LC retention time [10]: 2.72 min; LC retention time [11]: 1.38 min; LC retention time [12]: 2.8 min
7 | N[C@@H](CS(=O)(=O)O)C(=O)O [L-CYSTEIC ACID] | 13.4 min | 13.4 min | 13.4 min | – | 2.49 min | LC retention time [8]: 19.4 min
8 | COc1ccc2[nH]cc(CCNC(C)=O)c2c1 [MELATONIN] | – | 0.63 min | – | – | – | LC retention time [1]: 17.8 min; LC retention time [13]: 14.4 min; LC retention time [14]: 14.4 min; LC retention time [15]: 15.4 min; LC retention time [9]: 12.8 min; LC retention time [10]: 17.7 min; LC retention time [16]: 17.5 min; LC retention time [11]: 14.4 min; LC retention time [17]: 14.8 min; LC retention time [18]: 13.6 min; LC retention time [19]: 13.1 min; LC retention time [4]: 14.5 min; LC retention time [12]: 17.6 min; LC retention time [20]: 16.2 min
9 | CC(=O)NC(CC(N)=O)C(=O)O [N-ALPHA-ACETYL-L-ASPARAGINE] | – | 12.1 min | 11.8 min | 2.7 min | 2.67 min | LC retention time [21]: 0.89 min; LC retention time [22]: 1.38 min; LC retention time [23]: 1.08 min; LC retention time [24]: 1.35 min
10 | O=C(O)C1(O)CC(O)C(O)C(O)C1 (stereo not given) [QUINATE] | 12.3 min | – | 12.2 min | 2.67 min | 2.64 min | LC retention time [21]: 0.89 min; LC retention time [22]: 1.38 min; LC retention time [24]: 1.35 min
11 | Nc1ncnc2c1ncn2[C@@H]1O[C@H](CSCC[C@H]([NH3+])C(=O)[O-])[C@@H](O)[C@H]1O [S-(5'-ADENOSYL)-L-HOMOCYSTEINE] | – | – | 12.3 min | 2.67 min | 2.67 min | LC retention time [15]: 1.09 min; LC retention time [22]: 1.38 min; LC retention time [19]: 0.9 min; LC retention time [12]: 2.74 min; LC retention time [20]: 1.34 min
12 | NCCS(=O)(=O)O [TAURINE] | 12.3 min | 11.4 min | 12 min | – | 2.48 min | –
13 | O=c1ccn(C2OC(COP(=O)(O)O)C(O)C2O)c(=O)[nH]1 (stereo not given) [URIDINE-5-MONOPHOSPHATE] | – | 14 min | 13.6 min | 2.7 min | 2.67 min | LC retention time [25]: 0.92 min; LC retention time [21]: 0.89 min; LC retention time [23]: 1.08 min; LC retention time [24]: 1.35 min
